Like-named read-outs stand apart in the source and are kept apart here.
System: Aβ40 in conditioned medium of cells stably expressing Amyloid Precursor Protein (APP)
Assay: BACE cell-based assay: Aβ40 in conditioned medium by sandwich ELISA
Experimental: The cell-based assay measures inhibition or reduction of Aβ40 in conditioned medium of test compound treated cells expressing amyloid precursor protein.
Cells stably expressing Amyloid Precursor Protein (APP) were plated at a density of 40K cells/well in 96 well plates (Costar). The cells were cultivated for 24 hours at 37° C. and 5% CO2 in DMEM supplemented with 10% FBS. The test compounds were then added to cells in 10-point dose response concentrations with the starting concentration being either 100 μM or 10 μM. The compounds were diluted from stock solutions in DMSO and the final DMSO concentration of the test compounds on cells was 0.1%. After 24 h of incubation with the test compounds the supernatant conditioned media was collected and the Aβ40 levels were determined using a sandwich ELISA. The ICso of the compound was calculated from the percent of control or percent inhibition of Aβ40 as a function of the concentration of the test compound.
The sandwich ELISA to detect Aβ40 was performed in 96 well microtiter plates, which were pre-treated with goat anti-rabbit IgG (Pierce). The capture and detecting antibody pair that were used to detect Aβ40 from cell supernatants were affinity purified pAb40 (Biosource) and biotinylated 6E10 (Signet Labs Inc.), respectively. The optimal concentration for the pAb40 antibody was 3 μg/ml in Superblock/TBS (Pierce) that was supplemented with 0.05% Tween 20 (Sigma).
Cellular supernatants were incubated with the capture antibody for 3 h at 4° C., followed by 3 wash steps in TBS-tween (0.05%). The detecting antibody incubation was for 2 h at 4° C., again followed by the wash steps as described previously. The final readout of the ELISA is Time-Resolved Fluorescence (counts per minute) using Delfia reagents Streptavidin-Europium and Enhancement solutions (Perkin Elmer) and the Victor 2 multilabel counter (Perkin Elmer).

[1] = cell based assay data, Table 4, unit inferred, read-out: Cell Assay
[2] = cell based assay data of Table 4, unit inferred, read-out: Cell Assay

SMILES | IC50 [1] [nM] | IC50 [2] [nM] | also measured
C=C(C)C[C@H](NC(C)=O)[C@H](O)CN[C@H]1CC2(CCC2)Oc2ncc(CC(C)(C)C)cc21 [compound 539, N-((1S)-1-((1R)-2-(((4′S)-6′-(2,2-dimethylpropyl)-3′,4′-dihydrospiro[cyclobutane-1,2′-pyrano[2,3-b]pyridin]-4′-yl)amino)-1-hydroxyethyl)-3-methyl-3-buten-1-yl)acetamide] | – | 50.3 | –
COCC(C)(C)Cc1cnc2c(c1)[C@@H](NC[C@@H](O)[C@H](Cc1ccc(F)cc1)NC(C)=O)CC1(CCC1)O2 [compound 581] | – | 137 | –
CCNc1nc(CC(C)(C)C)cc2c1OC1(CCC1)C[C@@H]2NC[C@@H](O)[C@H](Cc1ccc(F)cc1)NC(C)=O [compound 584] | – | 5.29 | –
CC(=O)N[C@@H](Cc1cc(F)cc(F)c1)[C@H](O)CN[C@H]1C[C@@]2(CCOC2)Oc2c(Br)cc(Cl)cc21 [Example 249] | – | – | IC50 (cells stably expressing APP, 24 h incubation with compound, Aβ40 in supernatant by sandwich ELISA, read-out: IC50 values in the cell-based assay (inhibition or reduction of Aβ40)): ≤ 5000 nM
CC(=O)N[C@@H](Cc1ccc(F)cc1)[C@H](O)CN[C@H]1CC2(CCCC2)C(=O)c2ccc(CC(C)(C)C)cc21 [compound 563, N-((1S,2R)-3-(((4′S)-6′-(2,2-dimethylpropyl)-1′-oxo-3′,4′-dihydro-1′H-spiro[cyclopentane-1,2′-naphthalen]-4′-yl)amino)-1-((4-fluorophenyl)methyl)-2-hydroxypropyl)acetamide] | – | ≥ 10000 | –
CC(=O)N[C@@H](Cc1ccccc1)[C@H](O)CN[C@H]1CC2(CCC2)Oc2c1cc(CC(C)(C)C)nc2N(C)C [compound 582] | – | 31.8 | –
CC(=O)N[C@@H](Cc1ccc(F)cc1)[C@H](O)CN[C@H]1CC2(CCCC2)Oc2ncc(CC(C)(C)C)cc21 [compound 547] | – | 34.8 | –
CC(=O)N[C@@H](Cc1cc(F)c(F)c(F)c1)[C@H](O)CN[C@H]1CC2(CCC2)Oc2ncc(CC(C)(C)C)cc21 [compound 686] | – | 7.07 | –
CC(=O)N[C@@H](Cc1ccc(F)c(Br)c1)[C@H](O)CN[C@H]1CC2(CCC2)Nc2ccc(CC(C)(C)C)cc21 [compound 562, N-((1S,2R)-1-((3-bromo-4-fluorophenyl)methyl)-3-(((4′S)-6′-(2,2-dimethylpropyl)-3′,4′-dihydro-1′H-spiro[cyclobutane-1,2′-quinolin]-4′-yl)amino)-2-hydroxypropyl)acetamide] | – | 141 | –
CC(=O)N[C@@H](Cc1cccc(F)c1)[C@H](O)CN[C@H]1CC2(CCC2)Oc2nc(F)c(CC(C)(C)C)cc21 [compound 661] | – | 10.2 | –
CC(=O)N[C@@H](Cc1ccc(F)c(N(C)C)c1)[C@H](O)CN[C@H]1CC2(CCC2)Oc2ncc(CC(C)(C)C)cc21 [compound 709] | – | 8.01 | –
CC(=O)N[C@@H](Cc1ccc(F)cc1)[C@H](O)CN[C@H]1CC2(CCC2)Oc2ncc(C=C(C)C)cc21 [compound 696] | – | 254 | –
[N-]=[N+]=NCC(=O)N[C@@H](Cc1ccccc1)[C@H](O)CN[C@H]1CC2(CCC2)Oc2ccc(Br)cc21 [compound 698] | – | 2380 | –
COCC(=O)N[C@@H](Cc1ccc(F)cc1)[C@H](O)CN[C@H]1CC2(CCC2)Oc2ncc(CC(C)(C)C)cc21 [compound 628] | – | 10.5 | –
CC(=O)N[C@@H](Cc1cccc(F)c1)[C@H](O)CN[C@H]1CC2(CCC2)Oc2ncc(CC(C)(C)C#N)cc21 [compound 651] | – | 4.24 | –
CC(=O)N[C@@H](Cc1ccc(Cl)cc1)[C@H](O)CN[C@H]1C[C@]2(CC[C@H]2C)Oc2ncc(CC(C)(C)C)cc21 [compound 624] | – | 61.5 | –
CC(=O)N[C@@H](Cc1cccc(Cl)c1)[C@H](O)CN[C@H]1CC2(CCC2)Oc2ncc(CC(C)(C)C)cc21 [compound 702] | – | 1.24 | –
CC(=O)N[C@@H](Cc1cscn1)[C@H](O)CN[C@H]1CC2(CCC2)Oc2ncc(CC(C)(C)C)cc21 [compound 634, N-((1S,2R)-3-(((4′S)-6′-(2,2-dimethylpropyl)-3′,4′-dihydrospiro[cyclobutane-1,2′-pyrano[2,3-b]pyridin]-4′-yl)amino)-2-hydroxy-1-(1,3-thiazol-4-ylmethyl)propyl)acetamide] | – | 14.2 | –
CC(=O)N[C@@H](Cc1nc(Cl)cs1)[C@H](O)CN[C@H]1CC2(CCC2)Oc2ncc(CC(C)(C)C)cc21 [compound 641, N-((1S,2R)-1-((4-chloro-1,3-thiazol-2-yl)methyl)-3-(((4′S)-6′-(2,2-dimethylpropyl)-3′,4′-dihydrospiro[cyclobutane-1,2′-pyrano[2,3-b]pyridin]-4′-yl)amino)-2-hydroxypropyl)acetamide] | – | 6.82 | –

More lines, main results first:

IC50 [1] [nM] | IC50 [2] [nM] | SMILES | also measured
26.2 | – | CC(=O)N[C@@H](Cc1ccc(Cl)c(F)c1)[C@H](O)CN[C@H]1CC2(CCC2)Oc2ncc(CC(C)C)cc21 [compound 857] | –
212 | – | CC(=O)N[C@@H](Cc1cc(F)cc(F)c1)[C@H](O)CN[C@H]1CC2(CCC2)Oc2c1cc(Cl)cc2-n1cnc2ccccc21 [compound 775] | –
2630 | – | CC(=O)N[C@@H](CC1CCCN(C)C1)[C@H](O)CN[C@H]1CC2(CCC2)Oc2ncc(CC(C)(C)C)cc21 (stereo partly shown) [compound 829] | –
525 | – | CC(=O)N[C@@H](Cc1cc(F)cc(F)c1)[C@H](O)CN[C@H]1CC(C)(C)Oc2cc(F)c(Br)cc21 [compound 802] | –
9.31 | – | CC(=O)N[C@@H](Cc1ccc(F)c(Br)c1)[C@H](O)CN[C@H]1CC2(CCC2)Oc2ncc(CC(C)(C)F)cc21 [compound 834] | –
31 | – | CC(=O)N[C@@H](Cc1cccc(F)c1F)[C@H](O)CN[C@H]1CC2(CCC2)Oc2ncc(CC(C)(C)F)cc21 [compound 833] | –
1930 | – | CC(=O)N[C@@H](Cc1ccccc1)[C@H](O)CN[C@H]1CC2(CCC2)Oc2ncc(C(O)C(C)C(F)(F)F)cc21 (stereo partly shown) [compound 865] | –
33.8 | – | CC(=O)N[C@@H](Cc1cccc(F)c1F)[C@H](O)CN[C@H]1C[C@]2(C[C@H](C)C2)Oc2ncc(CC(C)(C)C)cc21 [compound 769, N-((1S,2R)-1-((2,3-difluorophenyl)methyl)-3-(((1s,3R,4′S)-6′-(2,2-dimethylpropyl)-3-methyl-3′,4′-dihydrospiro[cyclobutane-1,2′-pyrano[2,3-b]pyridin]-4′-yl)amino)-2-hydroxypropyl)acetamide] | –
3260 | – | CCCOC[C@H](NC(C)=O)[C@H](O)CN[C@H]1CC2(CCC2)Oc2ccc(CC)cc21 [compound 732] | –
≥ 10000 | – | CC(=O)N[C@H](Cc1cccc(Cl)c1F)[C@H](O)CN[C@H]1CC2(CCC2)Oc2ncc(CC(C)(C)C)cc21 [compound 866] | –
106 | – | CC(=O)N[C@@H](Cc1ccc(F)c(F)c1)[C@H](O)CN[C@H]1CC2(CCC2)Oc2ncc(CC(F)(F)F)cc21 [compound 842] | –
≥ 10000 | – | CC(=O)N[C@@H](Cn1cccn1)[C@H](O)CN[C@H]1CC2(CCC2)Oc2ncc(CC(C)(C)C)cc21 [compound 735] | –
38.8 | – | CC(=O)N[C@@H](Cc1cc(F)cc(Cl)c1)[C@H](O)CN[C@H]1CC2(CCC2)Oc2cnc(CC(C)(C)O)cc21 [compound 751] | –
236 | – | CC(=O)N[C@@H](Cc1ccc(F)cc1)[C@H](O)CN[C@H]1CC2(CCC2)Oc2ncc(CC(C)(C)CO)cc21 [compound 878] | –
15.5 | – | CC(=O)N[C@@H](Cc1ccc(F)c(Cl)c1)[C@H](O)CN[C@H]1C[C@]2(C[C@H](C)C2)Oc2ncc(CC(C)(C)C)cc21 [compound 713, N-((1S,2R)-1-((3-chloro-4-fluorophenyl)methyl)-3-(((1s,3R,4′S)-6′-(2,2-dimethylpropyl)-3-methyl-3′,4′-dihydrospiro[cyclobutane-1,2′-pyrano[2,3-b]pyridin]-4′-yl)amino)-2-hydroxypropyl)acetamide] | –
148 | – | CC(=O)N[C@@H](Cc1ccc(F)cc1)[C@H](O)CN[C@H]1CC2(CCC2)Oc2ncc(C(F)C(C)C(F)(F)F)cc21 (stereo partly shown) [compound 859] | –
14.7 | – | CC(=O)N[C@@H](Cc1ccc(F)c(Cl)c1)[C@H](O)CN[C@H]1CC2(CCC2)Oc2ncc(CC(C)(C)F)cc21 [compound 836] | –
8.57 | – | CC(=O)N[C@@H](Cc1ccc(Cl)c(F)c1)[C@H](O)CN[C@H]1CC2(CCC2)Oc2ncc(CC(C)(C)C)cc21 [compound 720] | –
81.6 | – | CC(=O)N[C@@H](Cc1cc(F)cc(F)c1)[C@H](O)CN[C@H]1CC2(CCC2)Oc2ccc(-n3ccnc3)cc21 [compound 782] | –
20.6 | – | COC(=O)N[C@@H](Cc1ccccc1)[C@H](O)CN[C@H]1CC2(CCC2)Oc2ncc(CC(C)(C)C)cc21 [compound 873] | –
27.7 | – | CC(=O)N[C@@H](Cc1ccc2c(c1)OCO2)[C@H](O)CN[C@H]1CC2(CCC2)Oc2ncc(CC(C)(C)F)cc21 [compound 840] | –
3.24 | – | CC(=O)N[C@@H](Cc1ccc(F)c(F)c1)[C@H](O)CN[C@H]1CC2(CCC2)Oc2ncc(CC(C)C)cc21 [compound 851] | –
9.28 | – | COc1ccc(C[C@H](NC(C)=O)[C@H](O)CN[C@H]2CC3(CCC3)Oc3ncc(CC(C)(C)C)cc32)cc1OC [compound 832] | –
498 | – | CC(=O)N[C@@H](Cc1cc(F)cc(F)c1)[C@H](O)CN[C@H]1CC2(CCC2)Oc2ncc(-n3ccnc3)cc21 [compound 747] | –
